The structures appear in SMILES notation.

Among the data in patent US10849881B2, “Octahydro-cyclobuta[1,2-c;3,4-c′]dipyrrol-2-yl” (Hoffmann-La Roche Inc., priority 2013, dated 2020) are IC50 values, retold here.

In the assay the target is ATX (human His-tagged) (Homo sapiens (Human), UniProt Q13822). The assay is described as follows: Human ATX enzyme inhibition assay (fluorescence quenching, MR121 substrate). The class given is biochemical. To be noted: 30 nM ATX, 1 μM MR121 substrate, 30° C., pH 8.0. The gist of the method: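 Fluorescence quenching assay with MR121/tryptophan-labelled substrate analogue in Tris-HCl buffer (140 mM NaCl, CaCl2, MgCl2, 0.01% Triton X-100, pH 8.0). Serially diluted compounds were preincubated 15 min at 30 °C with 30 nM ATX (final), then 1 µM substrate (final) added and incubated 15 min at 30 °C.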
What is called IC50 is the concentration needed to halve the response being measured. Higher therefore signals weaker potency. `O=C(c1ccc2[nH]nnc2c1)N1C[C@@H]2[C@H](C1)[C@H]1CN(C(=O)c3cc(OCC4CC4)c4ccccc4n3)C[C@@H]21` [Example 1.071, [(3aR,3bS,6aR,6bS)-5-(1H-benzotriazole-5-carbonyl)-octahydro-cyclobuta[1,2-c;3,4-c′]dipyrrol-2-yl]-(4-cyclopropylmethoxy-quinolin-2-yl)-methanone] displayed an IC50 of 0.0035 µM. To `O=C(c1ccc2[nH]nnc2c1)N1C[C@@H]2[C@H](C1)[C@H]1CN(C(=O)c3ccc(-c4ccc(Cl)cc4)cn3)C[C@@H]21` [Example 1.072, [(3aR,3bS,6aR,6bS)-5-(1H-benzotriazole-5-carbonyl)-octahydro-cyclobuta[1,2-c;3,4-c′]dipyrrol-2-yl]-[5-(4-chloro-phenyl)-pyridin-2-yl]-methanone] belongs 0.006 µM; to `CCOc1nc(C(=O)N2C[C@@H]3[C@H]4CN(C(=O)c5ccc6[nH]nnc6c5)C[C@H]4[C@@H]3C2)cc2ccccc12` [Example 1.073, [(3aR,3bS,6aR,6bS)-5-(1H-benzotriazole-5-carbonyl)-octahydro-cyclobuta[1,2-c;3,4-c′]dipyrrol-2-yl]-(1-ethoxy-isoquinolin-3-yl)-methanone], 0.0035 µM.

`CCn1ccc2c(OC(C)C)cc(C(=O)N3C[C@@H]4[C@H]5CN(C(=O)c6ccc7[nH]nnc7c6)C[C@H]5[C@@H]4C3)cc21` [Example 1.074, [(3aS,3bS,6aR,6bR)-5-(1H-benzotriazole-5-carbonyl)-octahydro-cyclobuta[1,2-c;3,4-c′]dipyrrol-2-yl]-(1-ethyl-4-isopropoxy-1H-indol-6-yl)-methanone] yielded an IC50 of 0.005 µM. For the molecule `O=C(c1ccc2[nH]nnc2c1)N1C[C@@H]2[C@H](C1)[C@H]1CN(C(=O)c3ccc(-c4ccc(Cl)cc4)c(=O)[nH]3)C[C@@H]21` [Example 1.075, 6-[(3aR,3bS,6aR,6bS)-5-(1H-benzotriazole-5-carbonyl)-octahydro-cyclobuta[1,2-c;3,4-c′]dipyrrole-2-carbonyl]-3-(4-chloro-phenyl)-1H-pyridin-2-one], the IC50 was 0.02 µM. For the molecule `CCOc1cc(C(=O)N2C[C@@H]3[C@H]4CN(C(=O)c5ccc6[nH]nnc6c5)C[C@H]4[C@@H]3C2)nc2cc(Cl)ccc12` [Example 1.076, [(3aR,3bS,6aR,6bS)-5-(1H-benzotriazole-5-carbonyl)-octahydro-cyclobuta [1,2-c;3,4-c′]dipyrrol-2-yl]-(7-chloro-4-ethoxy-quinolin-2-yl)-methanone], the IC50 came out at 0.0125 µM. The value for `CCOc1cc(C(=O)N2C[C@@H]3[C@H](C2)[C@H]2CN(C(=O)[C@@H]4CCc5[nH]nnc5C4)C[C@@H]32)nc2cc(Cl)ccc12` [Example 1.077, (7-chloro-4-ethoxy-quinolin-2-yl)-[(3aR,3bS,6aR,6bS)-5-((R)-4,5,6,7-tetrahydro-1H-benzotriazole-5-carbonyl)-octahydro-cyclobuta[1,2-c;3,4-c′]dipyrrol-2-yl]methanone] was 0.0075 µM; that for `CC(C)Oc1cc(C(=O)N2C[C@@H]3[C@H](C2)[C@H]2CN(C(=O)c4ccc5[nH]nnc5c4)C[C@@H]32)cc2c1CCCC2` [Example 1.078, [(3aS,3bS,6aR,6bR)-5-(1H-benzotriazole-5-carbonyl)-octahydro-cyclobuta[1,2-c;3,4-c′]dipyrrol-2-yl]-(4-isopropoxy-5,6,7,8-tetrahydro-naphthalen-2-yl)-methanone] was 0.0035 µM.

Consider `COCCOc1cc(C(=O)N2C[C@@H]3[C@H]4CN(C(=O)c5ccc6[nH]nnc6c5)C[C@H]4[C@@H]3C2)nc2cc(C(F)(F)F)ccc12` [Example 1.079, (1H-benzotriazol-5-yl)-{(3aS,3bR,6aS,6bR)-5-[4-(2-methoxy-ethoxy)-7-trifluoromethyl-quinoline-2-carbonyl]-octahydro-cyclobuta[1,2-c;3,4-c′]dipyrrol-2-yl}-methanone], for which the concentration for half-maximal inhibition (IC50) came out at 0.0315 µM. Turning to `CCOc1cc(C(=O)N2C[C@@H]3[C@H]4CN(C(=O)c5ccc6[nH]nnc6c5)C[C@H]4[C@@H]3C2)nc2ccc(C(F)(F)F)cc12` [Example 1.080, (1H-benzotriazol-5-yl)-[(3aS,3bR,6aS,6bR)-5-(4-ethoxy-6-trifluoromethyl-quinoline-2-carbonyl)-octahydro-cyclobuta[1,2-c;3,4-c′]dipyrrol-2-yl]-methanone], 0.0025 µM corresponded to half-maximal inhibition (IC50). In turn, `CCOc1c(C(=O)N2C[C@@H]3[C@H]4CN(C(=O)c5ccc6[nH]nnc6c5)C[C@H]4[C@@H]3C2)ccc2c1ccn2CC` [Example 1.081, [(3aS,3bS,6aR,6bR)-5-(1H-benzotriazole-5-carbonyl)-octahydro-cyclobuta[1,2-c;3,4-c′]dipyrrol-2-yl]-(4-ethoxy-1-ethyl-1H-indol-5-yl)-methanone] returned an IC50 of 0.0075 µM. `CCn1ccc2c(OCC(F)(F)F)c(C(=O)N3C[C@@H]4[C@H]5CN(C(=O)c6ccc7[nH]nnc7c6)C[C@H]5[C@@H]4C3)ccc21` [Example 1.082, [(3aS,3bS,6aR,6bR)-5-(1H-benzotriazole-5-carbonyl)-octahydro-cyclobuta[1,2-c;3,4-c′]dipyrrol-2-yl]-[1-ethyl-4-(2,2,2-trifluoro-ethoxy)-1H-indol-5-yl]-methanone]: it took 0.003 µM to reach half-maximal inhibition (IC50). To `CCOc1cc(C(=O)N2C[C@@H]3[C@H]4CN(C(=O)c5ccc(S(N)(=O)=O)nc5)C[C@H]4[C@@H]3C2)nc2ccccc12` [Example 1.083, 5-[(3aS,3bR,6aS,6bR)-5-(4-ethoxy-quinoline-2-carbonyl)-octahydro-cyclobuta[1,2-c;3,4-c′]dipyrrole-2-carbonyl]-pyridine-2-sulfonic acid amide] belongs 0.153 µM. The molecule `O=C(c1ccc2[nH]nnc2c1)N1C[C@@H]2[C@H](C1)[C@H]1CN(C(=O)c3cc(OCC(F)(F)F)c4ccccc4n3)C[C@@H]21` [Example 1.084, (1H-benzotriazol-5-yl)-{(3aS,3bR,6aS,6bR)-5-[4-(2,2,2-trifluoro-ethoxy)-quinoline-2-carbonyl]-octahydro-cyclobuta[1,2-c;3,4-c′]dipyrrol-2-yl}-methanone] gave a concentration for half-maximal inhibition (IC50) of 0.005 µM. `CCOc1cc(C(=O)N2C[C@@H]3[C@H]4CN(C(=O)c5ccc6[nH]nnc6c5)C[C@H]4[C@@H]3C2)cc2c1ccn2CC(F)(F)F` [Example 1.085, (1H-benzotriazol-5-yl)-{(3aS,3bS,6aR,6bR)-5-[4-ethoxy-1-(2,2,2-trifluoro-ethyl)-1H-indole-6-carbonyl]-octahydro-cyclobuta[1,2-c;3,4-c′]dipyrrol-2-yl}-methanone] yielded an IC50 of 0.0027 µM. On to `O=C(c1ccc2[nH]nnc2c1)N1C[C@@H]2[C@H](C1)[C@H]1CN(C(=O)c3cc(OCC4CC4)c(Cl)cn3)C[C@@H]21` [Example 1.086, (1H-benzotriazol-5-yl)-[(3aS,3bR,6aS,6bR)-5-(5-chloro-4-cyclopropylmethoxy-pyridine-2-carbonyl)-octahydro-cyclobuta[1,2-c;3,4-c′]dipyrrol-2-yl]-methanone], for which the half-maximal inhibitory concentration (IC50) turned out to be 0.017 µM. The value for `O=C(c1ccc2[nH]nnc2c1)N1C[C@@H]2[C@H](C1)[C@H]1CN(C(=O)c3ccc(C4CC4)c(OCC4CC4)n3)C[C@@H]21` [Example 1.087, (1H-benzotriazol-5-yl)-[(3aS,3bR,6aS,6bR)-5-(5-cyclopropyl-6-cyclopropylmethoxy-pyridine-2-carbonyl)-octahydro-cyclobuta[1,2-c;3,4-c′]dipyrrol-2-yl]-methanone] was 0.0153 µM; that for `CCOc1cc(C(=O)N2C[C@@H]3[C@H]4CN(C(=O)c5ccc6[nH]nnc6c5)C[C@H]4[C@@H]3C2)nc2c1CCCC2` [Example 1.088] was 0.0413 µM. To `O=C(c1cccc(-c2ccc(Cl)cc2)c1)N1C[C@@H]2[C@H](C1)[C@H]1CN(C(=O)c3ccc4[nH]nnc4c3)C[C@@H]21` [Example 1.089, (1H-benzotriazol-5-yl)-[(3aS,3bS,6aR,6bR)-5-(4′-chloro-biphenyl-3-carbonyl)-octahydro-cyclobuta[1,2-c;3,4-c′]dipyrrol-2-yl]-methanone] belongs 0.02 µM. `CCOc1cc(C(=O)N2C[C@@H]3[C@H]4CN(C(=O)c5ccc6[nH]nnc6c5)C[C@H]4[C@@H]3C2)nc2cc(OC)ccc12` [Example 1.090, (1H-benzotriazol-5-yl)-[(3aS,3bR,6aS,6bR)-5-(4-ethoxy-7-methoxy-quinoline-2-carbonyl)-octahydro-cyclobuta[1,2-c;3,4-c′]dipyrrol-2-yl]-methanone] had a half-inhibitory concentration (IC50) of 0.019 µM.

In the case of `CCOc1cc(C(=O)N2C[C@@H]3[C@H](C2)[C@H]2CN(C(=O)c4ccc5[nH]nnc5n4)C[C@@H]32)nc2ccc(C(F)(F)F)cc12` [Example 1.091, [(3aS,3bS,6aR,6bR)-5-(4-ethoxy-6-trifluoromethyl-quinoline-2-carbonyl)-octahydro-cyclobuta[1,2-c;3,4-c′]dipyrrol-2-yl]-(1H-[1,2,3]triazolo[4,5-b]pyridin-5-yl)-methanone], the IC50 was 0.017 µM. The value for `CCOc1nc(C(=O)N2C[C@@H]3[C@H](C2)[C@H]2CN(C(=O)c4ccc5[nH]nnc5n4)C[C@@H]32)cc2ccccc12` [Example 1.092, [(3aS,3bS,6aR,6bR)-5-(1-ethoxy-isoquinoline-3-carbonyl)-octahydro-cyclobuta[1,2-c;3,4-c′]dipyrrol-2-yl]-(1H-[1,2,3]triazolo[4,5-b]pyridin-5-yl)-methanone] was 0.018 µM. The value for `O=C(c1ccc2[nH]nnc2c1)N1C[C@@H]2[C@H](C1)[C@H]1CN(C(=O)c3ccc(C(F)(F)F)c(OCC4CC4)n3)C[C@@H]21` [Example 1.093, (1H-benzotriazol-5-yl)-[(3aS,3bR,6aS,6bR)-5-(6-cyclopropylmethoxy-5-trifluoromethyl-pyridine-2-carbonyl)-octahydro-cyclobuta[1,2-c;3,4-c′]dipyrrol-2-yl]-methanone] was 0.017 µM.
